Key:
Type in all cases: in vivo
[1] = test system: Diabrotica balteata (Corn Rootworm); experiment: Diabrotica balteata seed treatment test, larval mortality; conditions: treated corn seeds, L3 larvae, 6 days incubation
Experimental: Diabrotica Balteata (Corn Rootworm)
Treated corn seeds are sown in a 350 ml pot filled with soil. Two weeks after sowing corn seedlings are infested with L3 larvae of Diabrotica balteata. After an incubation period of 6 days survived larvae are counted.

Agriotes sp. (Wireworms) [2] = experiment: Agriotes sp. (wireworms) seed treatment test; conditions: treated corn seeds, 1 mg/seed, 14 days incubation
Experimental: Treated corn seeds are sown in a 350 ml pot filled with soil. One week after sowing corn seedlings are infested with wireworms. After an incubation period of 14 days healthy and affected larvae (intoxicated, moribund, dead) are counted.

Agriotes sp. (Wireworms) [3] = experiment: Agriotes sp. (wireworms) drench soil test with maize seedlings; conditions: 14 days after treatment
Experimental: Plastic beakers are prepared with 100 ml drench soil. Afterwards 12.5 ml compound solution is mixed in each plastic beaker and three maize seedlings are added. At the same day five wireworms are placed into each plastic beaker and these are covered up with a lid. Fourteen days after treatment the number of dead and moribund wireworms are evaluated. Wireworms are assessed as moribund if they were not able to bury into the soil in one hour after having been put onto the soil surface.

[4] = test system: Diabrotica balteata (Corn Rootworm); experiment: Diabrotica balteata in-furrow application, plant damage on maize; conditions: L2 larvae, 6 days after infestation
Experimental: (§1) Diabrotica Balteata (Corn Rootworm):
(§2) Plastic boxes (17×27×22 cm) are filled with 8 L of drench soil and 6 maize seeds are sown into a furrow. 10 ml of spray solution are applied with a hand sprayer into the furrow on the planted seeds and the furrow is closed afterwards. Two weeks after sowing each box is infested with 15 Diabrotica balteata L2 larvae. 6 days after infestation the plant damage is assessed. Plants are considered as either damaged or healthy. Dead plants, plants with hollow stems or entry holes are considered as damaged. The test is carried out with five replicates (boxes) per treatment. For in-furrow application the control is replicated five times with the application of water.
(§3) As six seeds are used per replicate, the total amount of active ingredient applied in furrow is six times the rate per seed in the seed treatment test.

[5] = test system: Diabrotica balteata (Corn Rootworm); experiment: Diabrotica balteata seed treatment, plant damage on maize; conditions: L2 larvae, 6 days after infestation
Experimental: as §1, §2
For the assessment as seed treatment 6 treated seeds are planted 0.5 cm deep into the soil. Exactly the same setup is used as with the in furrow treatment described above except that no spray solution is applied. For seed treatment the control is replicated five times without seed coating.
as §3

Cc1cc(C2=NOC(c3cc(Cl)c(Cl)c(Cl)c3)(C(F)(F)F)C2)ccc1C(=O)NC1CON(CC(F)(F)F)C1=O (mixture of isomers) [Compound A1]
% Larval mortality ([1]; 0.3 mg/seed): 87%

Cc1cc(C2=NOC(c3cc(Cl)cc(Cl)c3)(C(F)(F)F)C2)ccc1C(=O)NC1CON(C)C1=O (mixture of isomers) [Compound A2]
% Larval mortality ([1]; 0.3 mg/seed): 96%

CCN1OCC(NC(=O)c2ccc(C3=NOC(c4cc(Cl)c(F)c(Cl)c4)(C(F)(F)F)C3)cc2C)C1=O (mixture of isomers) [Compound A5]
% Larval mortality ([1]; 0.3 mg/seed): 96%

Cc1cc(C2=NOC(c3cc(Cl)cc(Cl)c3)(C(F)(F)F)C2)ccc1C(=O)NC1CON(CC(F)F)C1=O (mixture of isomers) [Compound A6]
% Larval mortality ([1]; 0.3 mg/seed): 87%

Cc1cc(C2=NOC(c3cc(Cl)cc(Cl)c3)(C(F)(F)F)C2)ccc1C(=O)NC1CON(CC(F)(F)F)C1=O (mixture of isomers) [Compound A8]
% Larval mortality ([1]; 0.3 mg/seed): 79%
% Mortality and moribund/intoxicated (Agriotes sp. (Wireworms) [2]): 100%

CCN1OCC(NC(=O)c2ccc(C3=NOC(c4cc(Cl)cc(Cl)c4)(C(F)(F)F)C3)cc2C)C1=O (mixture of isomers) [Compound A9]
% Moribund & dead (Agriotes sp. (Wireworms) [3]; application rate 0.8 ppm): 50%
% Moribund & dead (Agriotes sp. (Wireworms) [3]; application rate 3 ppm): 75%
% Moribund & dead (Agriotes sp. (Wireworms) [3]; application rate 12.5 ppm): 100%
% Mortality and moribund/intoxicated (Agriotes sp. (Wireworms) [2]): 25%

CCN1OCC(NC(=O)c2ccc(C3=NOC(c4cc(C(F)(F)F)c(Cl)c(C(F)(F)F)c4)(C(F)(F)F)C3)cc2C)C1=O (mixture of isomers) [Compound A15]
% Larval mortality ([1]; 0.3 mg/seed): 100%

CCN1OCC(NC(=O)c2ccc(C3=NOC(c4cc(F)cc(Cl)c4)(C(F)(F)F)C3)cc2C)C1=O (mixture of isomers) [Compound A22]
% Larval mortality ([1]; 1 mg/seed): 92%

CCN1OCC(NC(=O)c2ccc(C3=NOC(c4cc(Cl)c(Cl)c(Cl)c4)(C(F)(F)F)C3)cc2C)C1=O (mixture of isomers) [Compound A23]
% Larval mortality ([1]; 1 mg/seed): 100%

CCN1OCC(NC(=O)c2ccc(C3=NCC(c4cc(Cl)c(Cl)c(Cl)c4)(C(F)(F)F)C3)cc2C)C1=O (racemic) [Compound C3]
% Larval mortality ([1]; 1 mg/seed): 100%

Cc1cc(N2CCC(c3cc(Cl)cc(Cl)c3)(C(F)(F)F)C2)ccc1C(=O)NC1CON(CC(F)(F)F)C1=O (racemic) [Compound D1]
% Larval mortality ([1]; 0.3 mg/seed): 83%

Cc1cc(C2=NO[C@@](c3cc(Cl)cc(Cl)c3)(C(F)(F)F)C2)ccc1C(=O)N[C@@H]1CON(CC(F)(F)F)C1=O [Compound 1]
Reduction in plant damage compared to control (in-furrow application) ([4]; 0.1 mg AI per seed): 67%
Reduction in plant damage compared to control (in-furrow application) ([4]; 0.5 mg AI per seed): 95%
Reduction in plant damage compared to control (seed treatment) ([5]; 0.1 mg AI per seed): 25%
Reduction in plant damage compared to control (seed treatment) ([5]; 0.5 mg AI per seed): 50%

CCN1OC[C@@H](NC(=O)c2ccc(C3=NO[C@@](c4cc(Cl)c(F)c(Cl)c4)(C(F)(F)F)C3)cc2C)C1=O [Compound 2]
Reduction in plant damage compared to control (in-furrow application) ([4]; 0.1 mg AI per seed): 95%
Reduction in plant damage compared to control (in-furrow application) ([4]; 0.5 mg AI per seed): 91%
Reduction in plant damage compared to control (seed treatment) ([5]; 0.1 mg AI per seed): 35%
Reduction in plant damage compared to control (seed treatment) ([5]; 0.5 mg AI per seed): 75%

CCN1OC[C@@H](NC(=O)c2ccc(C3=NO[C@@](c4cc(Cl)cc(Br)c4)(C(F)(F)F)C3)cc2C)C1=O [Compound A11]
% Larval mortality ([1]; 1 mg/seed): 100%

CCN1OC[C@@H](NC(=O)c2ccc(C3=NO[C@@](c4cc(Cl)cc(C(F)(F)F)c4)(C(F)(F)F)C3)cc2C)C1=O [Compound A12]
% Larval mortality ([1]; 0.3 mg/seed): 88%

Cc1cc(C2=NO[C@@](c3cc(Cl)cc(Cl)c3)(C(F)(F)F)C2)ccc1C(=O)N[C@@H]1CON(CC(F)F)C1=O [Compound A14]
% Larval mortality ([1]; 1 mg/seed): 100%

Cc1cc(C2=NO[C@@](c3cc(Cl)cc(Cl)c3)(C(F)(F)F)C2)ccc1C(=O)N[C@@H]1CON(CC(F)(F)F)C1=O [Compound A16]
% Moribund & dead (Agriotes sp. (Wireworms) [3]; application rate 0.8 ppm): 100%
% Moribund & dead (Agriotes sp. (Wireworms) [3]; application rate 3 ppm): 100%
% Moribund & dead (Agriotes sp. (Wireworms) [3]; application rate 12.5 ppm): 100%
% Larval mortality ([1]; 1 mg/seed): 100%
% Mortality and moribund/intoxicated (Agriotes sp. (Wireworms) [2]): 100%

CCN1OC[C@@H](NC(=O)c2ccc(C3=NO[C@@](c4cc(Cl)cc(Cl)c4)(C(F)(F)F)C3)cc2C)C1=O [Compound A17]
% Moribund & dead (Agriotes sp. (Wireworms) [3]; application rate 0.8 ppm): 100%
% Moribund & dead (Agriotes sp. (Wireworms) [3]; application rate 3 ppm): 100%
% Moribund & dead (Agriotes sp. (Wireworms) [3]; application rate 12.5 ppm): 100%
% Larval mortality ([1]; 1 mg/seed): 83%
% Mortality and moribund/intoxicated (Agriotes sp. (Wireworms) [2]): 80%

CCN1OC[C@@H](NC(=O)c2ccc(C3=NO[C@@](c4cc(Cl)c(F)c(Cl)c4)(C(F)(F)F)C3)cc2C)C1=O [Compound A18]
% Larval mortality ([1]; 0.3 mg/seed): 96%

CCN1OC[C@@H](NC(=O)c2ccc(C3=NO[C@@](c4cc(Cl)c(Cl)c(Cl)c4)(C(F)(F)F)C3)cc2C)C1=O [Compound A19]
% Larval mortality ([1]; 1 mg/seed): 100%

Cc1cc(C2=NO[C@@](c3cc(Cl)c(F)c(Cl)c3)(C(F)(F)F)C2)ccc1C(=O)N[C@@H]1CON(CC(F)(F)F)C1=O [Compound A20]
% Larval mortality ([1]; 1 mg/seed): 100%

Cc1cc(C2=NO[C@@](c3cc(Cl)c(Cl)c(Cl)c3)(C(F)(F)F)C2)ccc1C(=O)N[C@@H]1CON(CC(F)(F)F)C1=O [Compound A21]
% Larval mortality ([1]; 1 mg/seed): 100%

Cc1cc(C2=NCC(c3cc(Cl)cc(Cl)c3)(C(F)(F)F)C2)ccc1C(=O)NC1CON(CC(F)(F)F)C1=O (stereo not drawn) [Compound C1]
% Larval mortality ([1]; 1 mg/seed): 100%

CCN1OCC(NC(=O)c2ccc(C3=NCC(c4cc(Cl)cc(Cl)c4)(C(F)(F)F)C3)cc2C)C1=O (stereo not drawn) [Compound C2]
% Larval mortality ([1]; 1 mg/seed): 50%
